# Source: paper PMC9898036, “VIP152 is a selective CDK9 inhibitor with pre-clinical in vitro and in vivo efficacy in chronic lymphocytic leukemia” (Leukemia, 2022)
# Like-named read-outs stand apart in the source and are kept apart here.
# Assays:
# Assay in all cases: DiscoverX KINOMEscan kinase profiling (468 assays)
# Format in all cases: binding
# human kinome [1] = molecular target: human kinome (Homo sapiens, UniProt P22694); conditions: read-out: Percent Control
# Summary of the method: (§1)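 DNA-tagged kinases competed for immobilized biotinylated ligands on streptavidin magnetic beads, with bound kinase quantified by qPCR. VIP152 in DMSO was tested against a DMSO control.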
# human kinome [2] = molecular target: human kinome (Homo sapiens, UniProt P80192); conditions: MLK1 (Entrez MAP3K9); 100 nM; read-out: Percent Control
# Summary of the method: as §1
# human kinome [3] = molecular target: human kinome (Homo sapiens, UniProt Q9UQ88); conditions: CDC2L2; 100 nM; read-out: Percent Control
# Summary of the method: as §1
# human kinome [4] = molecular target: human kinome (Homo sapiens, UniProt Q8IYT8); conditions: kinase ULK2 (Entrez ULK2); compound concentration 1000 nM; read-out: Percent Control
# Summary of the method: as §1
# human kinome [5] = molecular target: human kinome (Homo sapiens, UniProt Q07912); conditions: kinase TNK2 (Entrez TNK2); compound concentration 1000 nM; read-out: Percent Control
# Summary of the method: as §1
# human kinome [6] = molecular target: human kinome (Homo sapiens, UniProt Q9Y616); conditions: IRAK3; 100 nM; read-out: Percent Control
# Summary of the method: as §1
# human kinome [7] = molecular target: human kinome (Homo sapiens, UniProt P31749); conditions: AKT1; 100 nM; read-out: Percent Control
# Summary of the method: as §1
# human kinome [8] = molecular target: human kinome (Homo sapiens, UniProt Q5S007); conditions: LRRK2; 100 nM; read-out: Percent Control
# Summary of the method: as §1
# human kinome [9] = molecular target: human kinome (Homo sapiens, UniProt P09769); conditions: FGR; 100 nM; read-out: Percent Control
# Summary of the method: as §1
# human kinome [10] = molecular target: human kinome (Homo sapiens, UniProt P42336, E542K); conditions: read-out: Percent Control
# Chain of human kinome (Homo sapiens, UniProt P42336, E542K) (P42336 whole entry E542K): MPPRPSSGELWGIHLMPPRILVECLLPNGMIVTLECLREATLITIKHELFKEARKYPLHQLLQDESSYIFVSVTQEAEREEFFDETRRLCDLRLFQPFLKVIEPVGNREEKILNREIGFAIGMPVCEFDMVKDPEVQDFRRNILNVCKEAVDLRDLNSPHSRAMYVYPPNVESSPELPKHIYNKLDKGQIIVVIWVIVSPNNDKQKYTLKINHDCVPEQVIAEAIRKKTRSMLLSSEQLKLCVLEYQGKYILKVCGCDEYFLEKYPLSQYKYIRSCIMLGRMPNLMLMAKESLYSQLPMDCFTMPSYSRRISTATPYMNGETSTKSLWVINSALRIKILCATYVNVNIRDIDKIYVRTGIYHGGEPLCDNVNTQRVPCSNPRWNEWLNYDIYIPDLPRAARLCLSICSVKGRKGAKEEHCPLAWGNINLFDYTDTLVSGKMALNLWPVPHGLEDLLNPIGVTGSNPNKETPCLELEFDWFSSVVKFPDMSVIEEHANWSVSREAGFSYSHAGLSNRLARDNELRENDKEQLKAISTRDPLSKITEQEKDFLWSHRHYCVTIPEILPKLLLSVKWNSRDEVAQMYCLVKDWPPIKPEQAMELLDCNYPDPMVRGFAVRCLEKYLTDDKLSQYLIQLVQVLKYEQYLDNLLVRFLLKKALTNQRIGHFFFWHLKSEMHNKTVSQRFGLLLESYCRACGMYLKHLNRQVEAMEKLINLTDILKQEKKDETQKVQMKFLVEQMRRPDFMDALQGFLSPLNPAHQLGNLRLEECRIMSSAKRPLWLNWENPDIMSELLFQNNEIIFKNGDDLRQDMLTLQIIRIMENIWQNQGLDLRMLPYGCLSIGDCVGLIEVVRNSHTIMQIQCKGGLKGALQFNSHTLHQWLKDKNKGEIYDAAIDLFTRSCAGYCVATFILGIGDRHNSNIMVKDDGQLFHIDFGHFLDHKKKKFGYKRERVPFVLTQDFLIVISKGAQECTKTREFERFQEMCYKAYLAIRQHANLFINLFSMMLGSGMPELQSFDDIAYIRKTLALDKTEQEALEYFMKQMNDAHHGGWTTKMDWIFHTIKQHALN
# Summary of the method: as §1
# human kinome [11] = molecular target: human kinome (Homo sapiens, UniProt P51817); conditions: read-out: Percent Control
# Chain of human kinome (Homo sapiens, UniProt P51817) (P51817 whole entry): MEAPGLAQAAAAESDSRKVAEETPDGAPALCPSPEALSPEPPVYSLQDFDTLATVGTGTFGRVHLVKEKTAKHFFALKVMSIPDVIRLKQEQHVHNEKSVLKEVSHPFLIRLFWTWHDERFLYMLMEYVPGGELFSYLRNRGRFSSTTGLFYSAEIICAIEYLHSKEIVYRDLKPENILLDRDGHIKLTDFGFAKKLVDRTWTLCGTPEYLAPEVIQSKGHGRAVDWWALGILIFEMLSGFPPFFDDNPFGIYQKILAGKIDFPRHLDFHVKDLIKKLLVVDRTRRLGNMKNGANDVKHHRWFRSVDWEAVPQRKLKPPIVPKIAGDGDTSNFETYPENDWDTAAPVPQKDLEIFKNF
# Summary of the method: as §1
# human kinome [12] = molecular target: human kinome (Homo sapiens, UniProt Q8N5S9); conditions: CAMKK1; 100 nM; read-out: Percent Control
# Summary of the method: as §1
# human kinome [13] = molecular target: human kinome (Homo sapiens, UniProt Q02750); conditions: MEK1 (Entrez MAP2K1); 100 nM; read-out: Percent Control
# Summary of the method: as §1
# human kinome [14] = molecular target: human kinome (Homo sapiens, UniProt P36888, D835V); conditions: FLT3(D835V); 100 nM; read-out: Percent Control
# Summary of the method: as §1
# human kinome [15] = molecular target: human kinome (Homo sapiens, UniProt O43353); conditions: kinase RIPK2 (Entrez RIPK2); compound concentration 1000 nM; read-out: Percent Control
# Summary of the method: as §1
# human kinome [16] = molecular target: human kinome (Homo sapiens, UniProt P00533); conditions: EGFR; 100 nM; read-out: Percent Control
# Summary of the method: as §1
# human kinome [17] = molecular target: human kinome (Homo sapiens, UniProt P19784); conditions: CSNK2A2; 100 nM; read-out: Percent Control
# Summary of the method: as §1
# human kinome [18] = molecular target: human kinome (Homo sapiens, UniProt O94804); conditions: LOK (Entrez STK10); 100 nM; read-out: Percent Control
# Summary of the method: as §1
# human kinome [19] = molecular target: human kinome (Homo sapiens, UniProt P12931); conditions: kinase SRC (Entrez SRC); compound concentration 1000 nM; read-out: Percent Control
# Chain of human kinome (Homo sapiens, UniProt P12931) (P12931 whole entry): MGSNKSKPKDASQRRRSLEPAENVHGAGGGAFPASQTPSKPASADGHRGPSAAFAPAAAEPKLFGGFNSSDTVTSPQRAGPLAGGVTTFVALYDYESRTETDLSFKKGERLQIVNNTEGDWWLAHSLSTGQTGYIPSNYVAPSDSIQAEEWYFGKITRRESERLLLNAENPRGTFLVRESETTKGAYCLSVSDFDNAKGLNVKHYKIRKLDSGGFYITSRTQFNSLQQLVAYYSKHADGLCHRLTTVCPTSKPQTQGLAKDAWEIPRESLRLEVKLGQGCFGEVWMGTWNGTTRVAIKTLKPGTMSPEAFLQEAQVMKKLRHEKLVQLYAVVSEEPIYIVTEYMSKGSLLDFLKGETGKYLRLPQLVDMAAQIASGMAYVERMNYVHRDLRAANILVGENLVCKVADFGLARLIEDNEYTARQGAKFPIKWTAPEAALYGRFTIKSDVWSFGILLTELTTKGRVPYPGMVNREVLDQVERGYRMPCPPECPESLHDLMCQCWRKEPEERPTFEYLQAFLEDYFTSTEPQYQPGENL
# Summary of the method: as §1
# human kinome [20] = molecular target: human kinome (Homo sapiens, UniProt Q9HC98); conditions: read-out: Percent Control
# Chain of human kinome (Homo sapiens, UniProt Q9HC98) (Q9HC98 whole entry): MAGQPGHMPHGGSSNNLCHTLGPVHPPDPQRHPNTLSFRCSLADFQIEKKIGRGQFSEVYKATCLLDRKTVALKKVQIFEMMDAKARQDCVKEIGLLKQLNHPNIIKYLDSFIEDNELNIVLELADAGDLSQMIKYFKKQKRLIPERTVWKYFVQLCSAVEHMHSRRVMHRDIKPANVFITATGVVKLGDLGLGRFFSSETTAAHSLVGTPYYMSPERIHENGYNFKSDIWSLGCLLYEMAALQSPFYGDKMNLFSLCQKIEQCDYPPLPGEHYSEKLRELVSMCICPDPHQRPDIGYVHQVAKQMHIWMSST
# Summary of the method: as §1
# human kinome [21] = molecular target: human kinome (Homo sapiens, UniProt Q15759); conditions: read-out: Percent Control
# Chain of human kinome (Homo sapiens, UniProt Q15759) (Q15759 whole entry): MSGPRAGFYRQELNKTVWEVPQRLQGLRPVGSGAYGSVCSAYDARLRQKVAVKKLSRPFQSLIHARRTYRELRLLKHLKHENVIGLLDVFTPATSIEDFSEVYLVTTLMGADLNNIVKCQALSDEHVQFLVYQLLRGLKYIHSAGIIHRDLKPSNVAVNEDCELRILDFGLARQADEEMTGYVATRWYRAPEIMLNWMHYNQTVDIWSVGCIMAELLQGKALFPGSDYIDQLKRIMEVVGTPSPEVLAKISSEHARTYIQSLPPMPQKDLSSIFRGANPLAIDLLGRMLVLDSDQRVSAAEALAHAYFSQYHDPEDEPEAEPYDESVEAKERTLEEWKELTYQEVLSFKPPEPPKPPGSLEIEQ
# Summary of the method: as §1
# human kinome [22] = molecular target: human kinome (Homo sapiens, UniProt Q9UBE8); conditions: read-out: Percent Control
# Chain of human kinome (Homo sapiens, UniProt Q9UBE8) (Q9UBE8 whole entry): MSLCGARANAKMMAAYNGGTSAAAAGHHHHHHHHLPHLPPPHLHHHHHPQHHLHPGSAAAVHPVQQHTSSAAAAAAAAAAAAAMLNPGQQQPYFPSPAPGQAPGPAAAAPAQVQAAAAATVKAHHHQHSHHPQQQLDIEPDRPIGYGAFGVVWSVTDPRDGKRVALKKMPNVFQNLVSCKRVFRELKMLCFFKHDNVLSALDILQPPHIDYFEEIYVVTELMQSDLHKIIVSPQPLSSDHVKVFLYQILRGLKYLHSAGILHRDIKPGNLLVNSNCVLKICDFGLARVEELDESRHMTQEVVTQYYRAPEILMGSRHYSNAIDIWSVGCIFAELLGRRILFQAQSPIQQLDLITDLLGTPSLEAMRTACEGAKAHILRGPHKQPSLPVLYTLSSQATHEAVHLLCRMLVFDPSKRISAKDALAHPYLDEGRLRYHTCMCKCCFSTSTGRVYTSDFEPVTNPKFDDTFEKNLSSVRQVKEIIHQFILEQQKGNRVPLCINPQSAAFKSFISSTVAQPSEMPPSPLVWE
# Summary of the method: as §1
# human kinome [23] = molecular target: human kinome (Homo sapiens, UniProt O94806); conditions: read-out: Percent Control
# Chain of human kinome (Homo sapiens, UniProt O94806) (O94806 whole entry): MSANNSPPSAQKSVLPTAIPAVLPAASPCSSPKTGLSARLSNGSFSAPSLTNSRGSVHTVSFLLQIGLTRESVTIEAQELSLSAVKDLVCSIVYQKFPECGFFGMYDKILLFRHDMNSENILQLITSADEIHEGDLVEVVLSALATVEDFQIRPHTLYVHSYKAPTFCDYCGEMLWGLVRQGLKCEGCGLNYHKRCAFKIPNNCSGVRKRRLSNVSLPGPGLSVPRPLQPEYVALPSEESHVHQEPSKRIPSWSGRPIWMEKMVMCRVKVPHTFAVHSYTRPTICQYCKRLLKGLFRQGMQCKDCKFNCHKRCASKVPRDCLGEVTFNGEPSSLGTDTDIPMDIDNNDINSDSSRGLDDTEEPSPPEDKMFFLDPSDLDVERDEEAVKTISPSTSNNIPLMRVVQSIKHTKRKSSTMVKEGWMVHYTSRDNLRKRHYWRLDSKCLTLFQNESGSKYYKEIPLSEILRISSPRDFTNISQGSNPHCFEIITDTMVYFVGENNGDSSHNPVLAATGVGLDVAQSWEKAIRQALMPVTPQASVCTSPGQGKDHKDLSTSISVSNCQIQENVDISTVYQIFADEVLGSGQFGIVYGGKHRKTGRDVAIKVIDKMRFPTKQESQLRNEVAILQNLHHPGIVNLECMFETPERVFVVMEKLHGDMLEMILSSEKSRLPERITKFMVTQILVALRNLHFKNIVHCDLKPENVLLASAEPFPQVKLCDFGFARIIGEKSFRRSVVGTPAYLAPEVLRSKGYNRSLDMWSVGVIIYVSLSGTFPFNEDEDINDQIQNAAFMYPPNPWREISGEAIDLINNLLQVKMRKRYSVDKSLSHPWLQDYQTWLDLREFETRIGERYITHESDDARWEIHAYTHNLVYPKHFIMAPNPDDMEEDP
# Summary of the method: as §1
# human kinome [24] = molecular target: human kinome (Homo sapiens, UniProt P08922); conditions: kinase ROS1 (Entrez ROS1); compound concentration 1000 nM; read-out: Percent Control
# Summary of the method: as §1
# human kinome [25] = molecular target: human kinome (Homo sapiens, UniProt O75676); conditions: compound concentration 1000 nM, read-out: Percent Control
# Chain of human kinome (Homo sapiens, UniProt O75676) (O75676 whole entry): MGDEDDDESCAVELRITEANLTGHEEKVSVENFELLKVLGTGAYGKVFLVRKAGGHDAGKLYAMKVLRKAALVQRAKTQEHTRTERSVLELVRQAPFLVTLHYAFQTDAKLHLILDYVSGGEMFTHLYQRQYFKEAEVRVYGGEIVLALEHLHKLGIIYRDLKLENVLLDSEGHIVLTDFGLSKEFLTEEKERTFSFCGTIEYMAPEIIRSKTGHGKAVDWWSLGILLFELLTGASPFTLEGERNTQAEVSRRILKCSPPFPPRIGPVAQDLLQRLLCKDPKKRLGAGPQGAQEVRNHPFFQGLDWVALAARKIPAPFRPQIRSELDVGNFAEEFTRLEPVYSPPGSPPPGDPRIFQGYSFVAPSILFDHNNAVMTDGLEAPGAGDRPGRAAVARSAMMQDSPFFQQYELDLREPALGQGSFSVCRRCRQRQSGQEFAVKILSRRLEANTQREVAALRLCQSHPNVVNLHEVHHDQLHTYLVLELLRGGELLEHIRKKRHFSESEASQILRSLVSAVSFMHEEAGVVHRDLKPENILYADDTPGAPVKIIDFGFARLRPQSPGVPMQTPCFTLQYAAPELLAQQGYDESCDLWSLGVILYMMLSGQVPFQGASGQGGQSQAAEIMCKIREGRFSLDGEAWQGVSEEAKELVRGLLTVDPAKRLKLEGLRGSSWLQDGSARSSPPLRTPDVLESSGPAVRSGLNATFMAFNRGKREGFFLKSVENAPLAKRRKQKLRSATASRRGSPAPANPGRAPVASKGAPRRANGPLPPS
# Summary of the method: as §1
# human kinome [26] = molecular target: human kinome (Homo sapiens, UniProt Q9NSY1); conditions: BIKE (Entrez BMP2K); 100 nM; read-out: Percent Control
# Summary of the method: as §1
# human kinome [27] = molecular target: human kinome (Homo sapiens, UniProt Q15375); conditions: EPHA7; 100 nM; read-out: Percent Control
# Summary of the method: as §1
# human kinome [28] = molecular target: human kinome (Homo sapiens, UniProt Q8N752); conditions: CSNK1A1L; 100 nM; read-out: Percent Control
# Summary of the method: as §1
# human kinome [29] = molecular target: human kinome (Homo sapiens, UniProt Q9UEW8); conditions: kinase STK39 (Entrez STK39); compound concentration 1000 nM; read-out: Percent Control
# Summary of the method: as §1
structure (smiles),measurement,setting,value
COc1cc(F)ccc1-c1cc(Nc2cc(CS(C)(=N)=O)ccn2)ncc1F (stereo not shown) [VIP152],remaining binding at 0.1 µM,"human kinome [1]; PKAC-beta (Entrez PRKACB), 100 nM",100%
same,remaining binding at 1 µM,"human kinome [1]; kinase PKAC-beta (Entrez PRKACB), compound concentration 1000 nM",94%
same,remaining binding at 0.1 µM,human kinome [2],100%
same,remaining binding at 0.1 µM,human kinome [3],100%
same,remaining binding at 1 µM,human kinome [4],97%
same,remaining binding at 1 µM,human kinome [5],92%
same,remaining binding at 0.1 µM,human kinome [6],90%
same,remaining binding at 0.1 µM,human kinome [7],100%
same,remaining binding at 0.1 µM,human kinome [8],100%
same,remaining binding at 0.1 µM,human kinome [9],100%
same,remaining binding at 0.1 µM,"human kinome [10]; PIK3CA(E542K), 100 nM",100%
same,remaining binding at 1 µM,"human kinome [10]; kinase PIK3CA(E542K) (Entrez PIK3CA), compound concentration 1000 nM",100%
same,remaining binding at 0.1 µM,"human kinome [11]; PRKX, 100 nM",100%
same,remaining binding at 1 µM,"human kinome [11]; kinase PRKX (Entrez PRKX), compound concentration 1000 nM",99%
same,remaining binding at 0.1 µM,human kinome [12],89%
same,remaining binding at 0.1 µM,human kinome [13],100%
same,remaining binding at 0.1 µM,human kinome [14],100%
same,remaining binding at 1 µM,human kinome [15],49%
same,remaining binding at 0.1 µM,human kinome [16],100%
same,remaining binding at 0.1 µM,human kinome [17],100%
same,remaining binding at 0.1 µM,human kinome [18],95%
same,remaining binding at 1 µM,human kinome [19],83%
same,remaining binding at 0.1 µM,"human kinome [20]; NEK6, 100 nM",100%
same,remaining binding at 1 µM,"human kinome [20]; kinase NEK6 (Entrez NEK6), compound concentration 1000 nM",93%
same,remaining binding at 1 µM,"human kinome [21]; kinase p38-beta (Entrez MAPK11), compound concentration 1000 nM",100%
same,remaining binding at 0.1 µM,"human kinome [21]; p38-beta (Entrez MAPK11), 100 nM",100%
same,remaining binding at 0.1 µM,"human kinome [22]; NLK, 100 nM",100%
same,remaining binding at 1 µM,"human kinome [22]; kinase NLK (Entrez NLK), compound concentration 1000 nM",59%
same,remaining binding at 0.1 µM,"human kinome [23]; PRKD3, 100 nM",91%
same,remaining binding at 1 µM,"human kinome [23]; kinase PRKD3 (Entrez PRKD3), compound concentration 1000 nM",100%
same,remaining binding at 1 µM,human kinome [24],80%
same,remaining binding at 1 µM,human kinome [25]; kinase RPS6KA4(Kin.Dom.1-N-terminal) (Entrez RPS6KA4),85%
same,remaining binding at 1 µM,human kinome [25]; kinase RPS6KA4(Kin.Dom.2-C-terminal) (Entrez RPS6KA4),71%
same,remaining binding at 0.1 µM,human kinome [26],100%
same,remaining binding at 0.1 µM,human kinome [27],100%
same,remaining binding at 0.1 µM,human kinome [28],100%
same,remaining binding at 1 µM,human kinome [29],92%
